Peptide text beside a SMILES is read from it. * marks the point of attachment. Cbz = O=C(OCc1ccccc1)*; CH2F = FC*
Legend:
[1] = tested on: 4T1 cells; assay: Calcein-AM live cell imaging of cytosol release; format: cell-based, murine; settings: 4T1 cells, 50 µM Z-VAD 30 minutes, then 100 µM CKS1
Protocol: Fluorescence labeling of cells was performed by seeding 5.0 × 10^4 4T1 cells in a 35 mm dish on a collagen-coated No. 1.5 coverslip with a 14 mm glass diameter (MatTek, Ashland, MA). After overnight incubation, the cells were washed once with serum-free media and replaced with fresh serum-free media. For cell cytosol labeling, Calcein-AM (Thermo Fisher Scientific, C1430) was added at a final concentration of 5 µg/mL and incubated for 10 min. For mitochondrial membrane labeling, JC-1 (Thermo Fisher Scientific, T3168) was added at a final concentration of 10 µg/mL and incubated for 10 min. To monitor the activity of caspases, CellEvent Caspase-3/7 Red detection reagents (Thermo Fisher Scientific, C10423) were used following the manufacturer’s instructions. For nuclear staining, Hoechst 33342 (Cell Signaling Technology, #4082) was added at a final concentration of 5 µg/mL and incubated for 10 min.
Cells were imaged on either a Zeiss LSM 700 or a 3i spinning disk confocal microscope. Samples were imaged with optimized microscope settings. Z-stack, time-lapse, or multi-channel acquisition settings were adjusted based on the experimental requirements. Images were then acquired with the appropriate excitation and emission wavelengths for each fluorophore.
Image processing was performed using Fiji software. For each image/video, the brightness and the contrast were adjusted. The time stamp and the scale bar were added. For quantification, CellProfiler was used. After cell segmentation based on the nucleus, the intensity of the signal of interest was quantified for each cell. Based on the intensity, each cells were labeled as positive or negative and the fraction of positive cells was calculated.

[2] = tested on: 4T1 cells; assay: LDH release assay (CyQUANT); format: cell-based, murine; settings: N = 3; for effect of inhibitor pretreatment on CKS1-induced release of LDH: 30 min pre-treatment (50 µM Z-VAD, 50 µM Nec-1s, 1 µM Fer-1), then 100 µM CKS1 6 hours; for release of LDH (oncolytic activity): 100 µM of the indicated peptides for 6 h, normalized to lysis buffer
Protocol: Ten thousand cells were seeded in a 96-well plate and incubated overnight. The cells were washed once, and the medium was replaced with serum-free media. Cells were treated with CKS1 for the indicated time and concentration. CyQUANT LDH cytotoxicity assay (Thermo Fisher Scientific) was used following the manufacturer’s instructions to measure the release of LDH. LDH release was normalized to the amount of LDH released from cells treated with lysis buffer.

[3] = Solubility in water; settings: data not shown
[4] = tested on: caspase-3; settings: cited from earlier work
Text: The factors that determine whether a peptide induces apoptosis or not are not fully known. […] Although the mechanism of how CKS1 treatment affects the mitochondria remains unanswered, the malfunctioning of mitochondria caused by CKS1 may be the ...

Row | Compound | effect of inhibitor pretreatment on CKS1-induced release of LDH [2] | release of LDH (oncolytic activity) [2] | also measured
1 | COC(=O)C[C@H](NC(=O)[C@H](C)NC(=O)[C@@H](NC(=O)OCc1ccccc1)C(C)C)C(=O)CF [Z-VAD, reference compound] (Cbz-Val-Ala-Asp(OMe)-CH2F) | did not inhibit the release of LDH | – | effect of inhibitor pretreatment on CKS1-induced release of calcein [1]: did not inhibit nor slow down the release of calcein
2 | NGRKACLNPASP [loop region of CKS1, peptide that contains the N-terminal loop region of CKS1] | – | did not | –
3 | NGRKACLNPASPIVEEIIEEMLNS [NC1, mutant of CKS1, three lysines replaced with glutamic acids, anionic] | – | did not show oncolytic activity | –
4 | IVKKIIEKMLNS [helical region of CKS1] | – | induced LDH release | solubility in water [3]: poorly soluble in water
5 | NGRKACLNPASPIVKKIIPEKMLNS [NC2, mutant of CKS1, single proline inserted in the middle of the α-helix] | – | did not show oncolytic activity | –
6 | CCOC(=O)c1ccc(NC2CCCCC2)c(N)c1 [Fer-1, ferrostatin-1, reference compound] | did not inhibit the release of LDH | – | –
7 | CN1C(=O)NC(Cc2c[nH]c3c(Cl)cccc23)C1=O (stereo not shown) [Nec-1s, necrostatin-1 stable, reference compound] | did not inhibit the release of LDH | – | –
8 | LTX-315 | – | – | caspase-3 activity [4]: failed to stimulate caspase-3 activity

From publication PMC10987543 (Cell Death Discovery, 2024)
